Source: ChEMBL document CHEMBL6120938, “Covalent small-molecule inhibitors of SARS-CoV-2 Mpro: Insights into their design, classification, biological activity, and binding interactions” (Eur J Med Chem, 2024)
Where a SMILES comes first, the peptide text is derived from it. The star is where a group is joined. Octanoyl = CCCCCCCC(=O)*; Boc = CC(C)(C)OC(=O)*

test system: not listed separately; test: Inhibition of SARS-CoV-2 Main protease; parameters: species or system Severe acute respiratory syndrome coronavirus 2; details: not given

**Q.** Which IC50 does the source give for `C=CC(=O)N(c1ccc(C(C)(C)C)cc1)C(C(=O)NCCSC)c1cccnc1` (centres undefined) here?
**A.** The IC50 was 2860 nM.

**Q.** With `CC(C)C[C@H](NC(=O)O[C@@H](C)c1ccccc1)C(=O)N[C@H](C=O)C[C@@H]1CCNC1=O` as the compound, how does the IC50 read?
**A.** The IC50 was 130 nM.

**Q.** For `CC(C)C[C@H](NC(=O)OCc1cccc(F)c1)C(=O)N[C@H](C=O)C[C@@H]1CCNC1=O`, which IC50 is on record?
**A.** Its IC50 is 130 nM.

**Q.** For `CC(C)C[C@H](NC(=O)[C@@H](NC(=O)C1CCCCC1)C(C)C)C(=O)N[C@H](C=O)C[C@@H]1CCCNC1=O`, which IC50 is on record?
**A.** The IC50 was 240 nM.

**Q.** Which IC50 does the source give for `C=CC(=O)N(c1ccc(C(C)(C)C)cc1)C(C(=O)NC)c1cccnc1` (centres undefined) here?
**A.** The IC50 was 2860 nM.

**Q.** With `COc1cccc2[nH]c(C(=O)N[C@@H](CC(C)C)C(=O)N[C@@H](C[C@@H]3CCNC3=O)C(=O)CO)cc12` [PF-00835231] as the compound, how does the IC50 read?
**A.** Its IC50 is 600 nM.

**Q.** With `CC(C)C[C@H](NC(=O)OC(C)(C)C1CCC(F)(F)CC1)C(=O)N[C@@H](C[C@H]1CCNC1=O)C(O)S(=O)(=O)O` (some centres undefined) as the compound, how does the IC50 read?
**A.** The IC50 was 125 nM.

**Q.** With `O=C(Oc1cncc(Cl)c1)c1cccs1` as the compound, how does the IC50 read?
**A.** Its IC50 is 81 nM.

**Q.** For `CC(C)C[C@H](NC(=O)OC(c1ccccc1)C1CCC(F)(F)CC1)C(=O)N[C@H](C=O)C[C@H]1CCNC1=O` (some centres undefined), which IC50 is on record?
**A.** Its IC50 is 130 nM.

**Q.** For `COc1cccc2[nH]c(C(=O)N[C@@H](CC(C)C)C(=O)N[C@H](C=O)C[C@@H]3CCNC3=O)cc12`, which IC50 is on record?
**A.** Its IC50 is 130 nM.

**Q.** Which IC50 does the source give for `CCOC(=O)/C=C/[C@H](C[C@@H]1CCNC1=O)NC(=O)[C@@H](CC(=O)[C@@H](NC(=O)c1cc(C)on1)C(C)C)Cc1ccc(F)cc1` here?
**A.** Its IC50 is 68000 nM.

**Q.** With `C=CC(=O)N(c1ccc(C(C)(C)C)cc1)C(C(=O)NC(C)(C)C)c1cccnc1` (centres undefined) as the compound, how does the IC50 read?
**A.** The IC50 was 2950 nM.

**Q.** With `COc1cc(O)c2c(c1)O[C@H](c1cc(O)c(O)c(O)c1)[C@@H](O)C2=O` as the compound, how does the IC50 read?
**A.** The IC50 was 260 nM.

**Q.** With `COc1cc(O)c2c(=O)c(O)c(-c3cc(O)c(O)c(O)c3)oc2c1` as the compound, how does the IC50 read?
**A.** Its IC50 is 300 nM.

**Q.** Which IC50 does the source give for `CCOC(=O)/C=C/[C@H](C[C@@H]1CCNC1=O)NC(=O)[C@@H](CC(=O)[C@@H](NC(=O)OCc1ccccc1)[C@H](C)OC(C)(C)C)CC(C)O` (some centres undefined) here?
**A.** Its IC50 is 151 nM.

**Q.** For `CCCCC1CCC(OC(=O)N[C@@H](CC(C)C)C(=O)N[C@H](C=O)C[C@H]2CCNC2=O)CC1` (some centres undefined), which IC50 is on record?
**A.** The IC50 was 130 nM.

**Q.** With `CCCCCCNC(=O)n1cc(F)c(=O)[nH]c1=O` [CARMOFUR] as the compound, how does the IC50 read?
**A.** The IC50 was 18 nM.

**Q.** For `O=C[C@H](C[C@@H]1CCNC1=O)NC(=O)[C@H](CC1CC1)NC(=O)OCc1cccc(F)c1`, which IC50 is on record?
**A.** The IC50 was 14 nM.

**Q.** For `O=C[C@H](C[C@@H]1CCNC1=O)NC(=O)[C@H](CC1CC1)NC(=O)OCc1ccccc1`, which IC50 is on record?
**A.** The IC50 was 130 nM.

**Q.** For `COc1cccc2[nH]c(C(=O)N3C[C@H]4[C@@H]([C@H]3C(=O)N[C@@H](C[C@@H]3CCNC3=O)C(=O)c3nc5ccccc5s3)C4(C)C)cc12`, which IC50 is on record?
**A.** The IC50 was 55 nM.

**Q.** For `C=CC(=O)N(c1ccc(C(C)(C)C)cc1)C(C(=O)NCCOC)c1cccnc1` (centres undefined), which IC50 is on record?
**A.** The IC50 was 2860 nM.

**Q.** For `C=CC(=O)N(c1ccc(C(C)(C)C)cc1)C(C(=O)NCc1ccccc1)c1cccnc1` (centres undefined), which IC50 is on record?
**A.** The IC50 was 2860 nM.

**Q.** Which IC50 does the source give for `C=CC(=O)N(c1ccc(C(C)(C)C)cc1)C(C(=O)NCCc1cccc(F)c1)c1cccnc1` (centres undefined) here?
**A.** The IC50 was 2860 nM.

**Q.** Which IC50 does the source give for `COc1cccc2[nH]c(C(=O)N[C@@H](CC(C)C)C(=O)N[C@@H](C[C@@H]3CCNC3=O)C(=O)COP(=O)(O)O)cc12` [LUFOTRELVIR] here?
**A.** Its IC50 is 9 nM.

**Q.** With `[2H]c1c([2H])c([2H])c(COC(C)N[C@@H](CC(C)C)C(=O)N[C@H](C=O)C[C@@H]2CCNC2=O)c([2H])c1[2H]` (some centres undefined) as the compound, how does the IC50 read?
**A.** The IC50 was 160 nM.

target: not listed separately; test: Binding affinity to SARS-CoV-2 Main protease assessed as inhibition constant; parameters: species or system Severe acute respiratory syndrome coronavirus 2; details: not given

**Q.** For `COc1cc(-c2cccc3[nH]ncc23)cc(C=O)c1OCC(=O)N1CCC(c2cccc(C(=O)N(C)C)c2)C1` (centres undefined), which Ki is on record?
**A.** The Ki was 45 nM.

**Q.** For `COc1cc(-c2cccc3[nH]ncc23)cc(C=O)c1OCC(=O)N(C)C`, which Ki is on record?
**A.** Its Ki is 20 nM.

**Q.** For `CN(C)C(=O)COc1ccc(-c2cccc3[nH]ncc23)cc1C=O`, which Ki is on record?
**A.** The Ki was 37 nM.

test system: not listed separately; test: Inhibition of recombinant SARS-CoV-2 Wuhan-Hu-1 main protease extracted from Escherichia coli cells using Dabcyl-KTSAVLQSGFRKME-Edans as substrate incubated for 60 mins by FRET assay; parameters: species or system Severe acute respiratory syndrome coronavirus 2; details: not given

**Q.** For `CCCCCCCC(=O)NCC(=O)N[C@@H](Cc1ccccc1)C(=O)N[C@H](C=O)Cc1c[nH]cn1` (Octanoyl-Gly-Phe-His-aldehyde), which IC50 is on record?
**A.** Its IC50 is 2370 nM.

**Q.** Which IC50 does the source give for `CC(C)(C)OC(=O)NCC(=O)N[C@@H](Cc1ccccc1)C(=O)N[C@H](C=O)Cc1c[nH]cn1` (Boc-Gly-Phe-His-aldehyde) here?
**A.** Its IC50 is 6490 nM.

**Q.** With `CC(=O)NCC(=O)N[C@@H](Cc1ccccc1)C(=O)N[C@H](C=O)Cc1c[nH]cn1` (Ac-Gly-Phe-His-aldehyde) as the compound, how does the IC50 read?
**A.** The IC50 was 2510 nM.

test system: SARS-CoV-2; test: Antiviral activity against SARS-CoV-2 infected in Vero E6 cells assessed as inhibition of viral replication; assay type: functional, organism-based; details: Severe acute respiratory syndrome coronavirus 2, Vero C1008

**Q.** With `CCOC(=O)/C=C/[C@H](C[C@@H]1CCNC1=O)NC(=O)[C@@H](CC(=O)[C@@H](NC(=O)c1cc(C)on1)C(C)C)Cc1ccc(F)cc1` as the compound, how does the EC50 read?
**A.** Its EC50 is 1870 nM.

**Q.** With `COc1cc(O)c2c(c1)O[C@H](c1cc(O)c(O)c(O)c1)[C@@H](O)C2=O` as the compound, how does the EC50 read?
**A.** Its EC50 is 8000 nM.

**Q.** With `COc1cc(O)c2c(=O)c(O)c(-c3cc(O)c(O)c(O)c3)oc2c1` as the compound, how does the EC50 read?
**A.** Its EC50 is 8000 nM.

test system: not listed separately; test: Inhibition of C-terminal GST-tagged SARS-CoV-2 Main protease extracted from Escherichia coli BL21 (DE3) measured for 60 mins by FRET assay; parameters: species or system Severe acute respiratory syndrome coronavirus 2; details: not given

**Q.** For `O=c1c2cccc([N+](=O)[O-])c2[se]n1-c1ccccc1`, which IC50 is on record?
**A.** Its IC50 is 740 nM.

**Q.** With `O=c1c2ccccc2[se]n1-c1cccc2cccnc12` as the compound, how does the IC50 read?
**A.** The IC50 was 2600 nM.

test system: not listed separately; test: Inhibition of SARS-Cov-2 Main protease by FRET assay; parameters: species or system Severe acute respiratory syndrome coronavirus 2; details: not given

**Q.** Which IC50 does the source give for `CCOC(=O)/C=C/[C@H](C[C@@H]1CCNC1=O)NC(=O)[C@@H](CC(=O)[C@@H](NC(=O)c1cc(C)on1)C(C)C)Cc1ccc(F)cc1` here?
**A.** The IC50 was 47000 nM.

test system: SARS-CoV-2; test: Antiviral activity against SARS-CoV-2 infected in Vero E6 cells assessed as reduction in viral replication; assay type: functional, organism-based; details: Severe acute respiratory syndrome coronavirus 2, Vero C1008

**Q.** Which EC50 does the source give for `COc1cc(-c2cccc3[nH]ncc23)cc(C=O)c1OCC(=O)N(C)C` here?
**A.** The EC50 was 5190 nM.

**Q.** With `CN(C)C(=O)COc1ccc(-c2cccc3[nH]ncc23)cc1C=O` as the compound, how does the EC50 read?
**A.** The EC50 was 2500 nM.
